Values of other authors, collected in US9303066B2 (priority 2011, dated 2016).
Positions of bridges follow the written chain, without caps; N, C: chain ends. Residues, ends and D or L forms follow the SMILES beside them. No end group written: not given here.

Key:
[1] = in vivo, po
GC-C [2] = target: T1, GC-C (Homo sapiens, UniProt P25092); design: from tissue; host or cells: intestinal epithelium (luminal surface) in vivo; conditions: in vivo, po
[3] = 37° C.
GC-C [4] = target: T1, GC-C; conditions: cultured GC-C-expressing cells

T1 sequence (P25092 24-1073, species assumed): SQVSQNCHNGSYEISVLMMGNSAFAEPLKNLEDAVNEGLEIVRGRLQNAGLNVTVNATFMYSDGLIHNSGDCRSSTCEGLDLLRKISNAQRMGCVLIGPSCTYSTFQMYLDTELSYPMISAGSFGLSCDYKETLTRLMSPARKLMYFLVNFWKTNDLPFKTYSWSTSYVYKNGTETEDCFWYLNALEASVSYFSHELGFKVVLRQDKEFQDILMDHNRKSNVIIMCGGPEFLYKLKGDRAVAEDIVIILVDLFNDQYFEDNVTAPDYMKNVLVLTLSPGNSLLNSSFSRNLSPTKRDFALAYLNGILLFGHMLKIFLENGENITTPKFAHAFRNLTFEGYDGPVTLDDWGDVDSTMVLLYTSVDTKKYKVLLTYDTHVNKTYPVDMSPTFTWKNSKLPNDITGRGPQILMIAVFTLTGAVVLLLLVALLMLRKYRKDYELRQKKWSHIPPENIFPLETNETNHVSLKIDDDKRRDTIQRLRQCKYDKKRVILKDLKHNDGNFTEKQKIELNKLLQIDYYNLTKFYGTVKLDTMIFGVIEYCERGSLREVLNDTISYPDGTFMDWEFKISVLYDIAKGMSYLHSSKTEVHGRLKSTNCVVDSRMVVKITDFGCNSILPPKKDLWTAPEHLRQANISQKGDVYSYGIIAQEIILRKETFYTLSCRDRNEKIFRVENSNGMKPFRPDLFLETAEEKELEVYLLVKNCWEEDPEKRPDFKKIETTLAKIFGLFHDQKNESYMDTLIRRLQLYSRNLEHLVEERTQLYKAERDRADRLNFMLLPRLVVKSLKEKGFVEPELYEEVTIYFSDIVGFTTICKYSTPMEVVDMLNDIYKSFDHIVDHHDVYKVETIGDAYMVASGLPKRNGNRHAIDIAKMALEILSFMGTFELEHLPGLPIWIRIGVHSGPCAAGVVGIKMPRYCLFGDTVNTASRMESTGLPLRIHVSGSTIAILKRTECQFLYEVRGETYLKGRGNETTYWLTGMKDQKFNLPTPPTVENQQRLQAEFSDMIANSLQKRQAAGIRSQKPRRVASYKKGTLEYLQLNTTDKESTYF

**Q.** Which results are given for `C[C@@H]1NC(=O)[C@@H]2CCCN2C(=O)[C@H](CC(N)=O)NC(=O)[C@@H]2CSSC[C@H](N)C(=O)N[C@H]3CSSC[C@H](NC1=O)C(=O)N[C@@H]([C@@H](C)O)C(=O)NCC(=O)N[C@H](C(=O)N[C@@H](Cc1ccc(O)cc1)C(=O)O)CSSC[C@H](NC(=O)[C@H](Cc1ccc(O)cc1)NC(=O)[C@H](CCC(=O)O)NC3=O)C(=O)N2` [Linaclotide] (H-CCEYCCNPACTGCY-OH; disulfide 1-6, 2-10, 5-13)?
**A.** levels seen systemically [1]: no detectable levels; GI transit (GC-C [2]): increased GI transit; bloating (GC-C [2]): reduced bloating; visceral pain (GC-C [2]): reduced visceral pain

**Q.** Which “half-life of each form (A and B conformation)” value [3] does the source give for “NDDCELCVNVACTGCL (cysteine pairing not given here) [human Ugn]” here?
**A.** about 2 days

**Q.** For “UgnB: B conformational stereoisomer of human uroguanylin, separated by HPLC (NDDCELCVNVACTGCL; disulfide 4-12, 7-15; also: B conformational stereoisomer (HPLC-separated); UniProt Q16661 97-112, looked up)”, which “fold less potent than UgnA” value (GC-C [4]) is on record?
**A.** more than 100 fold
